In ChEMBL document CHEMBL1122818, “Synthesis and biological activity of certain 6-substituted and 2,6-disubstituted 2'-deoxytubercidins prepared via the stereospecific sodium salt glycosylation procedure” (J Med Chem, 1985):

Columns and labels:
[1] = system: Human respirovirus 3; assay: In vitro antiviral activity was tested against, parainfluenza type 3 (Para 3) virus; b=Too insoluble to test; type: functional, organism-based
[2] = system: Measles morbillivirus; assay: In vitro antiviral activity was tested against, measles virus; b=Too insoluble to test; type: functional, organism-based
[3] = system: Human alphaherpesvirus 2; assay: In vitro antiviral activity was tested against, herpes simplex type 2 virus (HSV-2); b=Too insoluble to test; type: functional, organism-based
[4] = Toxic level was evaluated; b=Too insoluble to test; type: ADME
[5] = system: Vaccinia virus; assay: In vitro antiviral activity was tested against, vaccinia virus (VV); b=Too insoluble to test; type: functional, organism-based; conditions: Orthopoxvirus vaccinia
[6] = system: P388; assay: In vitro inhibitory effect was tested for cytostatic activity on the growth of lymphoid neoplasm P388 leukemic cell lines; type: functional; conditions: Mus musculus, read-out: ID50 (the source's name)
[7] = system: Measles morbillivirus; assay: In vitro antiviral activity was tested against, measles virus; type: functional; conditions: read-out: ED50 (the source's name)
[8] = system: L1210; assay: In vitro inhibitory effect was tested for cytostatic activity on the growth of murine leukemic L1210 cell lines; type: functional; conditions: Mus musculus, read-out: ID50 (the source's name)
[9] = Toxic level was evaluated; type: ADME
[10] = system: Human respirovirus 3; assay: In vitro antiviral activity was tested against, parainfluenza type 3 (Para 3) virus; type: functional; conditions: read-out: ED50 (the source's name)
[11] = system: Human alphaherpesvirus 2; assay: In vitro antiviral activity was tested against, herpes simplex type 2 virus (HSV-2); type: functional; conditions: read-out: ED50 (the source's name)
[12] = system: Vaccinia virus; assay: In vitro antiviral activity was tested against, vaccinia virus (VV); type: functional; conditions: Orthopoxvirus vaccinia; read-out: ED50 (the source's name)
[13] = Toxic level was evaluated; None; type: ADME
[14] = system: Human respirovirus 3; assay: In vitro antiviral activity was tested against, parainfluenza type 3 (Para 3) virus; conditions: read-out: ED50 (the source's name)
[15] = system: Human alphaherpesvirus 2; assay: In vitro antiviral activity was tested against herpes simplex type 2 virus (HSV-2); type: functional; conditions: read-out: ED50 (the source's name)
[16] = system: Vaccinia virus; assay: In vitro antiviral activity was tested against vaccinia virus (VV); type: functional; conditions: Orthopoxvirus vaccinia; read-out: ED50 (the source's name)
[17] = system: Measles morbillivirus; assay: In vitro antiviral activity was tested against measles virus; type: functional; conditions: read-out: ED50 (the source's name)

| SMILES | EC50 [7] | Toxic level [9] | EC50 [10] | EC50 [11] | EC50 [12] | further results |
| --- | --- | --- | --- | --- | --- | --- |
| CSc1nc(Cl)c2cc(C)n([C@H]3C[C@H](O)[C@@H](CO)O3)c2n1 |  |  |  |  |  | ED50 [1]: Too insoluble; ED50 [2]: Too insoluble; ED50 [3]: Too insoluble; Toxic level [4]: Too insoluble; ED50 [5]: Too insoluble |
| Nc1nc(Cl)nc2c1ncn2[C@H]1C[C@H](O)[C@@H](CO)O1 [CLADRIBINE] | > 500 µM | 0.005 mM | > 500 µM | 5 µM | 5 µM | IC50 [6]: 0.032 µM; IC50 [8]: 0.026 µM |
| NC(=O)c1ncn([C@@H]2O[C@H](CO)[C@@H](O)[C@H]2O)n1 [RIBAVIRIN] | 30 µM |  | 160 µM | 190 µM | 85 µM | Toxic level [13]: Non-toxic |
| Nc1nc(Cl)nc2c1ccn2[C@H]1C[C@H](O)[C@@H](CO)O1 | > 5000 µM | 0.5 mM | > 5000 µM | > 5000 µM | 1100 µM |  |
| CSc1nc(N)c2cc(Cl)n([C@H]3C[C@H](O)[C@@H](CO)O3)c2n1 | 100 µM | 0.5 mM | 340 µM | 580 µM | > 500 µM |  |
| Cc1cc2cncnc2n1[C@H]1C[C@H](O)[C@@H](CO)O1 |  | 5 mM |  |  |  | EC50 [14]: 1100 µM; EC50 [15]: 74 µM; EC50 [16]: 1000 µM; EC50 [17]: 300 µM |
| Nc1ncnc2c1ccn2[C@H]1C[C@H](O)[C@@H](CO)O1 [2'-Deoxytubercidin] | 210 µM | 1.6 mM | 660 µM | 50 µM | 160 µM | IC50 [6]: 49 µM; IC50 [8]: 80 µM |
| Cc1nc(N)c2ccn([C@H]3C[C@H](O)[C@@H](CO)O3)c2n1 | 920 µM | 1.6 mM | > 5000 µM | 1600 µM | 3100 µM |  |
| Cc1nc(N)c2cc(Cl)n([C@H]3C[C@H](O)[C@@H](CO)O3)c2n1 | 360 µM | 0.5 mM | > 1600 µM | 500 µM | 840 µM |  |
| Nc1ncnc2c1cc(Cl)n2[C@H]1C[C@H](O)[C@@H](CO)O1 | 360 µM | 1.6 mM | 1600 µM | 1100 µM | 330 µM |  |
| OC[C@H]1O[C@@H](n2ccc3c(S)ncnc32)C[C@@H]1O | 27 µM | 5 mM | > 5000 µM | 160 µM | 1100 µM |  |
| CSc1ncc2cc(C)n([C@H]3C[C@H](O)[C@@H](CO)O3)c2n1 | 95 µM | > 5 mM | 1100 µM | 2900 µM | 840 µM |  |
| Cc1cc2c(N)ncnc2n1[C@H]1C[C@H](O)[C@@H](CO)O1 | 500 µM | 5 mM | 500 µM | 2100 µM | 1000 µM |  |
| CSc1nc(N)c2cc(C)n([C@H]3C[C@H](O)[C@@H](CO)O3)c2n1 | 250 µM | 1.6 mM | > 5000 µM | 1300 µM | 1000 µM |  |
| OC[C@H]1O[C@@H](n2ccc3c(Cl)ncnc32)C[C@@H]1O | 89 µM | 1.6 mM | 960 µM | 650 µM | > 5000 µM | IC50 [6]: 73 µM; IC50 [8]: 59 µM |
| OC[C@H]1O[C@@H](n2ccc3cncnc32)C[C@@H]1O | 250 µM | 5 mM | > 5000 µM | 1400 µM | > 5000 µM |  |
